Here are results for 26 molecules from US6020334A, “Piperazinones, their production and use” (Takeda Chemical Industries, Ltd., priority 1995, dated 2000).

Series [1] in a line: Bleeding time in guinea pigs (continuous intravenous infusion, Simplate R incision). To be noted: continuous i.v. infusion for 90 minutes. Type of series: in vivo. The protocol:
(§1) Bleeding Time in Guinea Pigs and Determination of Ex Vivo Platelet Aggregation Inhibitory Action
(§2) Male Hartley guinea pigs (body weight: about 400 g) were employed. These animals were intravenously infused continuously, under anesthesia with pentobarbital, with a physiological saline solution or receptor-antagonistdissolved in the solution at a dose of 10 μl/kg/min.
After the continuous infusion for 90 minutes, the thigh of each animal was applied with a rubber cuff and charged with 40 mmHg, then given an incised sound with Simplate R (Organon Teknika). Thereafter, at 30 sec. each interval, blood was absorbed into a filter paper. The time until no more blood was absorbed into the filter paper was measured. The bleeding time of normal five guinea pigs was about 276 sec.

The test system of series [2] is platelet aggregation by ADP. Kind of series: Platelet aggregation in vitro (inhibition of ADP-induced aggregation of guinea pig PRP, Born's method). The format is cell-based, guinea pigs. To be noted: Cavia porcellus, ADP 0.6-1 μM, 37° C. The method, then:
Determination of Platelet Aggregation in Vitro
Blood was collected from abdominal aorta of guinea pigs under anesthesia with pentobarbital (20 mg/kg, i.p.) using sodium citrate as an anticoagulant (final concentration: 0.315%). The sodium citrate--supplemented blood was centrifuged at 950 rpm for 10 minutes and 2,000 rpm for 10 minutes respectively at room temperature to obtain platelet rich plasma (PRP) and platelet poor plasma (PPP). The number of platelet was counted an automatic platelet counter (Sysmex E2500, Toaiyo-denshi). PRP was diluted with PPP to adjust the number of platelets to be 500,000/μl. Platelet aggregation was measured as follows, in accordance with Born's method (Nature 194: 927, 1962), using an 8-channel aggregometer (NBS HEMA TRACER VI, Niko Bioscience Inc.): The PRP (250 μl) was incubated at 37° C. for 2 minutes, to which was then added 25 μl of a test drug solution. Two minutes later, 25 μl of an agent (ADP) for causing agglutination. The effect of the test drug was shown by the inhibition rate of the maximum aggregation rate of the test group against that of the control group. ADP was used in the minimum concentration (0.6-1 μM) capable of obtaining maximum aggregation.

Series [3] concerns ex vivo platelet aggregation. Kind of series: Ex vivo platelet aggregation inhibitory action (PRP of infused guinea pigs, ADP). The format is in vivo. To be noted: continuous i.v. infusion for 90 minutes, ADP 0.5 to 1 μM. The method, then:
as §1, §2
After 90 minutes of the continuous infusion, blood was collected from abdominal aorta using sodium citrate (whole blood:3.15% citric acid solution=9:1 by volume). […]
Platelet aggregation was measured by using an 8-channel photo-extinction type platelet aggregometer (NBS/HEMA TRACER 801, Niko Bioscience). […] The PRP was set in the aggregometer and incubated for two minutes at 37° C., to which was added 20 μl of ADP (0.5 to 1 μM), and the changes of transmittance were recorded. The difference of PRP and PPP in photo-extinction was assumed 100%, and, with the maximum photo-extinction rates, the maximum aggregation rates (%) were determined. The effects of the drugs were determined by comparing the maximum aggregation rates (%) of animals continuously infused with a physiological saline solution with those of animals continuously infused with receptor antagonist.

The molecule `N=C(N)c1ccc(C(=O)NCCC[C@H]2C(=O)N(CC(=O)O)CCN2C(=O)CNC(=O)c2ccc(C(=N)N)cc2)cc1` [compound 2] registered a Bleeding time in series [1] (2 μg/kg/min) of 308 ± 33 s. The molecule further gave an IC50 in series [2] of 37 nM. Further, in series [3] (2 μg/kg/min), the “Inhibitory rate (ex vivo platelet aggregation inhibition)” value stood at 100%.
As for `COc1ccc(C[C@H](NC(=O)c2ccc(C(=N)N)cc2)C(=O)N2CCN(CC(=O)O)C(=O)[C@@H]2CCCCNC(=O)c2ccc(C(=N)N)cc2)cc1` [compound 8], the IC50 in series [2] worked out at 12 nM.
Still for that read-out and setting: in the case of `N=C(N)NCc1ccc(C(=O)NC[C@H]2C(=O)N(CC(=O)O)CCN2C(=O)CNC(=O)c2ccc(C(=N)N)cc2)cc1` [compound 26] it was 84 nM.
In series [1] (3 μg/kg/min), `N=C(N)Nc1ccc(C(=O)NCCC[C@H]2C(=O)N(CC(=O)O)CCN2C(=O)CNC(=O)c2ccc(NC(=N)N)cc2)cc1` [compound 15] had a Bleeding time of 250 ± 26 s. This molecule registered an IC50 in series [2] of 51 nM. Also, in series [3] (3 μg/kg/min), the “Inhibitory rate (ex vivo platelet aggregation inhibition)” value came out at 100%.
`N=C(N)c1ccc(NC(=O)CC[C@H]2C(=O)N(CC(=O)O)CCN2C(=O)CNC(=O)c2ccc(C(=N)N)cc2)cc1` [compound 24] returned an IC50 in series [2] of 250 nM.
On the same count and under the same terms, in the case of `N=C(N)c1ccc(C(=O)NCC(=O)N2CCN(CC(=O)O)C(=O)[C@@H]2CN)cc1` [compound 17] it was 240 nM; in that of `N=C(N)c1ccc(C(=O)NCC(=O)N2CCN(CC(=O)O)C(=O)[C@@H]2CNC(=O)c2ccc(C(=N)N)cc2)cc1` [compound 18], 130 nM.
In turn, `N=C(N)c1ccc(C(=O)NCCC[C@H]2C(=O)N(CC(=O)O)CCN2C(=O)CNC(=O)c2ccc(CCN)cc2)cc1` [compound 32] returned an IC50 in series [2] of 53 nM.
On the same count and under the same terms, the value for `N=C(N)Nc1ccc(C(=O)NCC[C@H]2C(=O)N(CC(=O)O)CCN2C(=O)CNC(=O)c2ccc(C(=N)N)cc2)cc1` [compound 16] was 44 nM.
In series [2], `COc1ccc(C[C@H](NC(=O)c2ccc(C(=N)N)cc2)C(=O)N2CCN(CC(=O)O)C(=O)[C@@H]2CCCNC(=O)CCCCCN)cc1` [compound 27] had an IC50 of 18 nM. This IC50 is about 2.4-fold lower than that of the molecule before.
Turning to `COC(=O)ON=C(N)c1ccc(C(=O)NCCC[C@H]2C(=O)N(CC(=O)O)CCN2C(=O)CNC(=O)c2ccc(C(=N)N)cc2)cc1` [compound 31], the IC50 in series [2] worked out at 190 nM. This IC50 lies about 11-fold higher than the previous one.
The same measure, in the same setting: in the case of `COc1ccc(C[C@H](NC(=O)c2ccc(C(=N)N)cc2)C(=O)N2CCN(CC(=O)O)C(=O)[C@@H]2CCCCNC(=O)CN)cc1` [compound 28] it was 19 nM; in that of `N=C(N)c1ccc(C(=O)NCCC[C@@H]2C(=O)N(CC(=O)O)CCN2C(=O)CNC(=O)c2ccc(C(=N)N)cc2)cc1` [compound 22], 3800 nM; in that of `COc1ccc(C[C@H](NC(=O)c2ccc(C(=N)N)cc2)C(=O)N2CCN(CC(=O)O)C(=O)[C@@H]2CCCN)cc1` [compound 5], 16 nM.
In series [2], `N=C(N)NCCCC(=O)NCCC[C@H]1C(=O)N(CC(=O)O)CCN1C(=O)CNC(=O)c1ccc(C(=N)N)cc1` [compound 13] had an IC50 of 110 nM. Against the preceding molecule, the IC50 is about 6.9-fold higher.
The same measure, in the same setting: the value for `COc1ccc(C[C@H](NC(=O)c2ccc(C(=N)N)cc2)C(=O)N2CCN(CC(=O)O)C(=O)[C@@H]2CCCCNC(=N)N)cc1` [compound 12] was 25 nM.
Same read-out and setting: the value for `COC(=O)ON=C(N)c1ccc(C(=O)NCCC[C@H]2C(=O)N(CC(=O)O)CCN2C(=O)CNC(=O)c2ccc(C(N)=NOC(=O)OC)cc2)cc1` [compound 30] was 19000 nM; that for `N=C(N)Cc1ccc(C(=O)NC[C@H]2C(=O)N(CC(=O)O)CCN2C(=O)CNC(=O)c2ccc(C(=N)N)cc2)cc1` [compound 25] was 54 nM.
In turn, `COc1ccc(C[C@H](NC(=O)c2ccc(C(=N)N)cc2)C(=O)N2CCN(CC(=O)O)C(=O)[C@@H]2CCCCN)cc1` [compound 7] came in with an IC50 in series [2] of 19 nM.
On the same count and under the same terms, the value for `COc1ccc(C[C@H](NC(=O)c2ccc(C(=N)N)cc2)C(=O)N2CCN(CC(=O)O)C(=O)[C@@H]2CCCNC(=O)c2ccc(C(=N)N)cc2)cc1` [compound 6] was 20 nM.
Still for that read-out and setting: the value for `N=C(N)c1ccc(C(=O)NCC(=O)N2CCN(CC(=O)O)C(=O)[C@@H]2CCCNC(=O)CCCCN)cc1` [compound 10] was 200 nM; that for `N=C(N)c1ccc(C(=O)NCC(=O)N2CCN(CC(=O)O)C(=O)[C@@H]2CCCNC(=O)CCCN)cc1` [compound 11] was 230 nM.
In series [2], `N=C(N)c1ccc(C(=O)NCC[C@H]2C(=O)N(CC(=O)O)CCN2C(=O)CNC(=O)c2ccc(C(=N)N)cc2)cc1` [compound 19] displayed an IC50 of 180 nM.
Still for that read-out and setting: the value for `N=C(N)Nc1ccc(C(=O)NCCC[C@H]2C(=O)N(CC(=O)O)CCN2C(=O)CNC(=O)c2ccc(C(=N)N)cc2)cc1` [compound 23] was 17 nM; that for `N=C(N)c1ccc(C(=O)NCC(=O)N2CCN(CC(=O)O)C(=O)[C@@H]2CCCN)cc1` [compound 1] was 520 nM; that for `N=C(N)c1ccc(C(=O)NCC(=O)N2CCN(CC(=O)O)C(=O)[C@@H]2CCCNC(=O)CCCCCN)cc1` [compound 9] was 180 nM.

Usually IC50 stands for the concentration that gives 50% inhibition.
